Patent US20110311601A1, “ANTIMICROBIAL MEDICAL DEVICES” (priority 2010, published 2011)
Where “and” joins values, the source holds several entries; their conditions need not be identical. Equal entries are not always repeated. Where no end group is shown, it is not given here.

Columns and labels:
[1] = system: Escherichia coli strain DB3.1; assay: micro-dilution assay of coated titanium pins and peptide controls (bacterial killing, CFU); type: cell-based
Experimental: In a first experiment 10 μg of hβD2 was coated to three different SAM Hexadecyltrimethoxysilane (SAM 1), Dimethoxymethyloctylsilane (SAM 2), and oxidized Allyltrimethoxysilane (SAM 3) of the modified titanium pins. The anti-bacterial activity of the hβD2-coated pins was tested by a micro-dilution assay. Therefore, Escherichia coli strain DB3.1 (Invitrogen, Cat. No. 11782-018) was used. E. coli was streaked from a glycerol stock onto a Brain Heart Infusion (BHI) agar plate (3.7% (w/v) BHI Bouillon, 1.5% (w/v) Agar), grown overnight at 37° C. and subsequently used to inoculate 40 ml of 3.7% (w/v) BHI Bouillon without any antibiotics in 100 ml flasks. Fresh cells were harvested by centrifugation at 16000 rpm for 10 min and washed twice with 10 mM sodium phosphate buffer, pH 7.2. The optical density was adjusted to 10^4 cells/ml. For anti-bacterial testing, a single pin coated with hβD2 was incubated in one well of a microtiter plate containing 100 μl of the bacterial suspension.
Functionalized titanium pins without hβD2 served as negative controls (SAM1-n, SAM2-n, SAM3-n, SAM4::Col-NHS-n, SAM4::Col-Glu-n). In addition, 5 independent control reactions consisting of hβD2 in a final amount of 0 (NC), 0.02 (PC1), 0.2 (PC2), 2 (PC3) and 10 (PC4) μg were examined in parallel. To determine the specificity of the anti-bacterial activity of hβD2, 10 μl (10 μg/ml in PBS) of polyclonal monospecific anti-hβD2 antibodies were co-incubated with 10 μg of hβD2 and bacterial cells (Table I, PC4/ab).
The microtiter plates were incubated for 2 h at 37° C. The kinetic studies were performed by replacing the bacterial suspension, after 2 h of cultivation with a freshly pre-cultured E. coli solution, which contained the same bacterial concentration, and cultivating for another 2 h and so on. Colony forming units (CFU) were determined after plating 100 μl of a 1:100 dilution of the bacterial suspension on petri dishes with BHI medium and incubating them overnight at 37° C. For every group of the functionalized titanium pins and the controls, 5 independent anti-bacterial assays were performed. A control (NC) of bacterial growth was examined for every independent assay. The number of CFU on the control (consisting of a single petri dish) was set to 0% bactericidal activity. The reduction in the CFU resulting from the anti-bacterial activity of hβD2 was related to the absolute CFU of the control within every independent assay. This value, given as a percentage of the bacterial “killing” activity, was used to describe the antibacterial activity. This kind of normalisation of the antibacterial data was performed for every experimental group.
To examine the release behavior of hβD2 that is adsorbed by different SAM modified titanium pins a time kinetic experiment was performed. The experiment was performed analogous to Example 2. For this experiment 80 μg of hβD2 was adsorbed to three different SAMs Hexadecyltrimethoxysilane (SAM1), Dimethoxymethyloctylsilane (SAM2), and oxidized Allyltrimethoxysilane (SAM3) of the modified titanium pins.
Since it is known that collagen has a positive impact on wound healing, functionalised titanium pins with collagen were investigated. Two different cross-linking strategies for collagen on SAM3 and SAM4 were applied as described in Example 1: (i) a covalently binding strategy with the NHS/EDC cross-linking system, and (ii) the use of glutaraldehyde. Successful binding of collagen was monitored by collagen-specific DirectRed staining (as described in Example 1). […] Additionally 80 μg hβD2 was adsorbed to collagen functionalized SAM3 and SAM4 modified titanium pins, respectively. For monitoring the antibacterial activity of the bio-coated pins the experiment was performed analogous to Example 3. […]

[2] = system: Escherichia coli strain DB3.1; assay: microdilution assay of hβD2 coated biopolymers (percentage killing); type: cell-based
Experimental: Microdilution assay. In the microdilution assay the microorganisms were exposed to a potential bio-active substance in liquid surrounding, thus free to move. This potential bio-active substance was either homogenously dispersed in the liquid surrounding by active mixing at the beginning of the tests or could spread out of the sample during incubation time. The bioactivity was measured in percentage killing, wherein the number of colony forming units (CFU) in a control without test substance was set to 0% killing and a reduction in the cell number to zero was set to 100% killing.
Fresh cells were harvested by centrifugation at 1600 rpm for 10 min, the supernatant was removed and the cell pellet was resuspended in 5 ml 10 mM sodium phosphate buffer. This procedure was repeated twice. The optical density was adjusted to OD600 of 0.500 with 10 mM sodium phosphate buffer. 100 μl of the bacterial suspension was pipetted in one well of a microtiter plate without optimized surface. 10 μl test substance or test sample was added. In case of a test substance, the mixture was homogenized by absorbing the mixture several times with a pipette. The microtiter plate is then closed with parafilm and incubated at 37° C. for 2 h. After incubation the substances in the wells were mixed by a pipette. […] For evaluation, the grown colonies were counted.
The microdilution assay facilitates the examination of the hβD2 release kinetics of the biopolymers and thus allowed conclusions on what amounts of hβD2 in which time could be released. For comparing on evaluation of the assay the effect of directly applied hβD2 amounts with the effect of hβD2 amounts applied on biopolymers, the achieved percentage killing of bacteria was compared to the killing rate of the hβD2 standard series in the microdilution assays.
The collagen scaffolds and polylactide matrices were examined in the microdilution assay regarding their hβD2 release kinetics. Since the incubation time of the samples in the bacterial suspension is limited, the samples were stored at −25° C. after the test and until completion of a further assay. The thawed samples were then used in a new assay and were incubated again.

human β-defensin-2 (GIGDPVTCLKSGAICHPVFCPRRYKQIGTCGLPGTKCCKKP; ends and bridges not checked; cysteine pairing not given here) [hβD2, recombinant hβD2]
antmicrobial activity, bacterial killing [%] ([1]; control PC1: 0.02 μg rHuβD2, 2 h): 14.80 ± 2.78%
antmicrobial activity, bacterial killing [%] ([1]; control PC2: 0.20 μg rHuβD2, 2 h): 32.38 ± 2.93%
antmicrobial activity, bacterial killing [%] ([1]; control PC3: 2.00 μg rHuβD2, 2 h): 92.80 ± 3.91%
antmicrobial activity, bacterial killing [%] ([1]; control PC4/ab: 10.00 μg rHuβD2 co-incubated with polyclonal anti-hβD2 antibodies, 2 h): 0%
antmicrobial activity, bacterial killing [%] ([1]; control PC4: 10.00 μg rHuβD2, 2 h): 100%
bacteria killing ([2]; 2 μg hβD2 on collagen scaffold, after 13 hours): 18%
killing rate ([2]; 2 μg hβD2 on collagen scaffold, first 2 hours): ≤ 36%
killing rate ([2]; 4 μg hβD2 and 5 μg chondroitin sulphate on collagen scaffold, 0-2 hours): 54%
killing ([2]; 4 μg hβD2 and 20 μg spermidine on collagen scaffold, 0-2 hours): 19%
killing rate ([2]; 4 μg hβD2 on collagen scaffold impregnated with 20 μl of 0.1 M L-glutamic acid solution, 0-2 hours): 53%
killing rate ([2]; 4 μg hβD2 on collagen scaffold impregnated with 20 μl of 0.1 M L-lysine solution, 0-2 hours): 11%
killing ([2]; 4 μg hβD2 on collagen scaffold pre-treated with 10 μl of 0.1% gelatine solution, 0-2 hours): 94%
killing rate ([2]; 4 μg hβD2 on collagen scaffold treated with 5 μg BSA, 0-2 hours): 98%
killing of the bacteria ([2]; 4 μg hβD2 on collagen scaffold treated with 5 μg HAS, 0-2 hours): 100%
killing rate ([2]; 4 μg hβD2 on collagen scaffold treated with 60 μg poly-L-glutamic acid, 0-2 hours): 23%
killing rate ([2]; 4 μg hβD2 on collagen scaffold without pre-treatment, first 2 hours): 89% and 86%
killing ([2]; 4 μg hβD2 on collagen scaffold, 17th hour): 25%
bio-activity of the scaffolds ([2]; 4 μg hβD2 on collagen scaffold, after 20 hours): depleted
killing (given as release amount in %) ([2]; 4 μg hβD2 on collagen scaffold, first 5 hours): 38%
bacteria killing ([2]; 25 μg hβD2 on polylactide matrix coated with collagen and chondroitin sulphate, first two hours): 89%
bacteria killing ([2]; 25 μg hβD2 on polylactide matrix coated with collagen, first two hours): 100%
bacteria killing ([2]; 25 μg hβD2 on uncoated polylactide matrix, first two hours): 100%
killing ([2]; 30 μg hβD2 on collagen scaffold, after 13 hours): 29%
killing rate ([2]; 30 μg hβD2 on collagen scaffold, after 17 hours): 22%
activity of the scaffold ([2]; 30 μg hβD2 on collagen scaffold, after 20 hours): inactive
killing rate ([2]; 30 μg hβD2 on collagen scaffold, first 5 hours): 86%
killing (given as release amount in %) ([2]; 125 μg hβD2 on collagen scaffold, after 5 hours): 93%
